Test [1] concerns CD8+ cytotoxic T lymphocytes (CTLs). Nature of the test: murine CTLs cultivated under suboptimal conditions with SCFAs; cytokines and effector molecules by flow cytometry and ELISA. In kind it is cell-based. An excerpt:
It is known that the glycolytic metabolic pathway promotes IFN-γ expression and T cell effector function. […] We next investigated if acetylation of H4 was increased at CTL-characteristic loci (Ifnγ, Tbx21 and Eomes) after treatment of CTLs with pentanoate. […] Due to the high level of heterogeneity and plasticity within T lymphocytes, we next investigated possible effects of pentanoate on other CD8^+ T cell subtypes. […] To gain further insight into possible therapeutic strategies, we next investigated the impact of pentanoate on human CD8^+ T lymphocytes.
(§1) (A) Experimental design for the treatment of CTLs with the water-soluble fraction of intestinal content derived from SPF or GF mice. (B and C) Frequencies of IFN-γ- and TNF-α-producing CTLs treated with the extract from luminal content derived from indicated organs. Representative results of two experiments are shown (n=3). (D) ELISA was performed to measure the secretion of TNF-α by CLTs treated as shown in (A). (E) Quantitative measurement of total SCFA amounts in fecal samples of SPF and GF mice (n=5). (F and G) The percentage of IFN-γ^+ TNF-α^+ CTLs treated with the indicated SCFAs for three days (n=3, one of three independent experiments is shown). (H) The secretion of TNF-α from CTLs treated with SCFAs was determined by ELISA (n=3, one of two independent experiments is shown). (I) The fluorogenic HDAC assay was applied to measure the HDAC inhibitory activity of SCFAs on CTLs. The value for unstimulated CTLs was arbitrarily set to 1.0. Four independent experiments were performed. (J and K) Representative contour plots (J) and bar graphs (K) showing the frequency of IFN-γ+ and TNF-α+ cells after pentanoate (2 mM) or VPA (0.5 mM) administration. Three similar experiments were performed. (L and M) The frequency of Eomes- and T-bet-expressing CTLs treated with pentanoate (2 mM) or VPA (0.5 mM) for three days was analyzed by flow cytometry (n=4). (N) ChIP assay showing the acetylation of histone H4 at the promoter regions of Ifnγ and Eomes genes after 24 hours of treatment of CTLs with pentanoate. Data are from pooled chromatin of three mice.
Representative histogram plots (A) and bar graphs (B) are showing the frequency of Annexin V^+ cells. Three similar experiments were performed. (C) Representative effector molecule staining of CD8^+ T cells polarized under suboptimal CTL-inducing conditions, treated with pentanoate or TSA (10 nM Sigma-Aldrich) in presence of 2-DG (1 mM, Sigma-Aldrich) or rapamycin (100 nM, Sigma-Aldrich) for 3 days. Three independent experiments were performed. (D) Western blot analysis of H3Ac and H4Ac in CD8^+ T cells treated with SCFAs for 3 days. (E) Pan-H4Ac ChIP qPCR analysis for Tbx21 promoter accessibility in pentanoate-treated CTLs. Data are from pooled chromatin of three mice. (F and G) CD8^+ T cells isolated from WT and Tbx21^−/− mice were polarized under suboptimal CTL-inducing conditions in presence of increasing pentanoate concentrations. Representative contour plots (F) and bar graphs (G) show the frequency of IFN-γ+ and IL-17A^+ cells. Two similar experiments were performed. […]

The next test has as its system mTOR. The test can be described thus: phosphorylation of mTOR and S6 in human CTLs. Particulars: three days. In kind it is cell-based. On the procedure: (A and B) CTLs were cultured in medium containing 1.0% FCS and treated with pentanoate (2.5 mM) for three days. Representative histogram plots and bar graphs indicate the phoshorylated levels of mTOR (A) and S6 ribosomal protein (B), respectively (n=3 pooled from three independent experiments). (C and D) Human CTLs were cultured in medium containing 1.0% serum and treated with indicated HDACi for three days. Representative histogram plots and bar graphs indicate the phoshorylated levels of mTOR (C) and S6 ribosomal protein (D), respectively (data points represent four individual healthy donors) (E) Measurement of extracellular acidification rate (ECAR) for in vitro generated murine CTLs cultured with or without 2.5 mM pentanoate for three days. ECAR was measured under basal conditions and in response to glucose (10 mM), oligomycin (2 μM), and 2-deoxy-glucose (2-DG, 100 mM). One of three independent experiments is shown.

Another test relates to class I HDAC isoforms. Nature of the test: HDAC inhibition of recombinant class I HDAC isoforms. In kind it is biochemical. Conditions: cell-free supernatants vs YCFA medium; TSA as control.
Test [2] has as its system class II HDACs (HDAC4, HDAC5, HDAC6 and HDAC9). Nature of the test: HDAC inhibition of recombinant class II HDAC isoforms. In kind it is biochemical. On the procedure:
(A) The production of SCFAs, branched-chain fatty acids (BCFAs) and medium-chain fatty acids (MCFAs) by 16 human commensals was measured by GC-MS. All bacteria were grown in vitro until stationary growth phase before the measurement of fatty acids in supernatants. (B and C) HDAC inhibition of recombinant class I and class II HDAC isoforms by cell-free supernatants derived from 16 members of human commensal community. Significance was tested against YCFA medium. (D) Impact of bacterial SCFAs, BCFAs and MSCFAs on the activity of class I and II HDAC enzymes. TSA was used as a control pan-HDAC inhibitor.

A further test deals with human CD8+ T lymphocytes. Nature of the test: human CD8+ T lymphocytes differentiated into CTLs, flow cytometry. In kind it is cell-based. Particulars: healthy donors. On the procedure: (A and B) CD8^+ T cells isolated from spleens and LNs were polarized under Tc17-inducing conditions and treated with pentanoate for 3 days. Representative contour plots (A) and bar graphs (B) indicate the frequency of IL-17^+ and IFN-γ+ cells. Three similar experiments were performed. (C and D) CD8^+ T cells isolated from spleens and LNs were polarized under Tc9-inducing conditions and treated with pentanoate for 3 days. Representative contour plots (C) and bar graphs (D) are showing the frequency of IL-9^+ and IFN-γ+ cells. Three similar experiments were performed. (E and F) The expression of granzyme B, IFN-γ and Eomes in pentanoate-treated human CTLs was analysed by flow cytometry. Five independent experiments were performed (E). For Eomes, mean fluorescence intensity (MFI) values are shown (F, n=3).
(A) CD8^+ T cells isolated from peripheral blood of healthy donors were differentiated into CTLs in presence or absence of indicated HDACi. Representative contour plots and dot plots indicate the frequency of TNF-α+ and IFN-γ^+ cells. Data points in the graphs represent individual donors (n=4, performed in 4 independent experiments) (B-G) Phenotyping of pentanoate-treated ROR1-specific CD8^+ CAR T cells (CARROR1 T cells). (B) Experimental setup for the functional analysis is shown. (C) The cytokine secretion (IFN-γ and TNF-α) was analysed in supernatants of pentanoate-treated CARROR1 T cells by ELISA. (D) The surface expression of CD25 was measured by flow cytometry. (E) The secretion of IL-2 was detected in supernatants of CARROR1 T cells by ELISA. (F) Proliferation of CARROR1 T cells was determined by CFSE labelling. CARROR1 T cells pre-treated with pentanoate were stained with CFSE and subsequently co-cultured with […] cells in the absence of pentanoate. CD8^+ T cells without the CAR construct were used as mock control cells. […] The percentage of lysed target cells was determined in 1 hour intervals (effector-to-target cell (E:T) ratio=2.5:1). […]

The next test has as its system histones H3 and H4. Nature of the test: Western blot of H3Ac and H4Ac in CD8+ T cells. It counts as cell-based, murine. Particulars: SCFAs for 3 days. The protocol:
Representative histogram plots (A) and bar graphs (B) are showing the frequency of Annexin V^+ cells. Three similar experiments were performed. (C) Representative effector molecule staining of CD8^+ T cells polarized under suboptimal CTL-inducing conditions, treated with pentanoate or TSA (10 nM Sigma-Aldrich) in presence of 2-DG (1 mM, Sigma-Aldrich) or rapamycin (100 nM, Sigma-Aldrich) for 3 days. Three independent experiments were performed. (D) Western blot analysis of H3Ac and H4Ac in CD8^+ T cells treated with SCFAs for 3 days. (E) Pan-H4Ac ChIP qPCR analysis for Tbx21 promoter accessibility in pentanoate-treated CTLs. Data are from pooled chromatin of three mice. (F and G) CD8^+ T cells isolated from WT and Tbx21^−/− mice were polarized under suboptimal CTL-inducing conditions in presence of increasing pentanoate concentrations. Representative contour plots (F) and bar graphs (G) show the frequency of IFN-γ+ and IL-17A^+ cells. Two similar experiments were performed.

For the next test, the system named is HDAC. Nature of the test: fluorogenic HDAC assay on CTL-derived cell lysates. It counts as biochemical, murine. Conditions: unstimulated CTLs set to 1.0. On the procedure:
as §1, with “(N) ChIP assay showing the acetylation of histone H4 at the promoter regions of Ifnγ and Eomes genes after 24 hours of treatment of CTLs with pentanoate. Data are from pooled chromatin of three mice.” left out

Regarding `O=CC[C@@H](O)[C@H](O)[C@H](O)CO` [2-DG, 2-deoxyglucose, reference compound], in test [1] (2-DG 1 mM or rapamycin 100 nM, 3 days), the “IFN-γ production in CTLs” value was “reduction”.

For `CC(C)(CNC(=O)c1cccc(-c2noc(C(F)(F)F)n2)c1)c1coc(-c2ccccc2)n1` [TMP-195, reference compound], the “phosphorylation level of S6 ribosomal protein” value in the test on mTOR is given as “neither mocetinostat (HDAC class I inhibitor MGCD0103) nor TMP 195 (HDAC class II inhibitor) had a significant effect”.

In the case of `CC(/C=C/C(=O)NO)=C\[C@@H](C)C(=O)c1ccc(N(C)C)cc1` [TSA, trichostatin A, reference compound], the “activity of class I HDAC isoforms” value in the test with class I HDAC isoforms is reported as “inhibited”. For the same compound, the “activity of class II HDACs” value in test [2] was “inhibited”. In addition, the “reversal of the effect on granzyme B+IFN-γ+ cells by rapamycin” value in test [1] (rapamycin 100 nM co-treatment) is given as “could not be reversed”. Also, in test [1] (vs control CTLs, TSA 10 nM, 3 days), the “percentages of granzyme B+IFN-γ+ CD8+ T cells” value is given as “substantially enhanced”.

As to `Nc1ccccc1NC(=O)c1ccc(CNc2nccc(-c3cccnc3)n2)cc1` [mocetinostat, reference compound], the “expression of TNF-α and IFN-γ” value in the test with human CD8+ T lymphocytes is given as “promoted the similar effects”. The “phosphorylation level of S6 ribosomal protein” value with mTOR is given as “neither mocetinostat (HDAC class I inhibitor MGCD0103) nor TMP 195 (HDAC class II inhibitor) had a significant effect”.

`CCC(=O)O` [propionate, reference compound]: in the test with histones H3 and H4, the “acetylation of histones H3 and H4” value is recorded as “increased acetylation”. For the same compound, the “HDAC activity of CTL-derived cell lysates” value in the test with HDAC was “strong reduction of HDAC activity”.
